Laboratory results published in the SangsterLogP compilation.

Compound `CC(C)C(C#N)c1ccc([N+](=O)[O-])cc1` (configuration not stated) has a logP of 2.63. Compound `CCOc1cc(C#N)ccc1O` has a logP of 1.36. `COc1ccc(C(C#N)C(C)C)cc1` (configuration not stated) showed a logP of 2.68. Compound `COc1ccc(C#N)cc1[N+](=O)[O-]` has a logP of 1.23. `N#Cc1cccc([N+](=O)[O-])c1` gave a logP of 1.3. `COc1ccc(C#N)cc1` showed a logP of 1.49. With `CCOc1ccc(C#N)cc1` the logP was 2.03. Work on `CCOc1ccc(C#N)cc1Br` yielded a logP of 2.99. `N#Cc1ccc(Br)cc1` showed a logP of 2.42. `COc1ccc(C#N)cc1OC` showed a logP of 1.42. `COc1cc(C#N)ccc1O` showed a logP of 0.82. For `CC(C)C(C#N)c1ccccc1` (configuration not stated), the logP was 2.89. In the case of `COc1ccc(C#N)cc1Br`, the logP was 2.35. Compound `CCOc1ccc(C#N)cc1[N+](=O)[O-]` has a logP of 1.77. Compound `CCOc1ccc(C#N)cc1OC` has a logP of 2.06. Work on `N#Cc1ccc(O)c(Br)c1` yielded a logP of 1.75. `N#Cc1ccc(Cl)c(Cl)c1` showed a logP of 2.98.
